Test system: TPA-induced mouse ear oedema
Test: TPA-induced mouse ear oedema model
Assay type: in vivo, Male Balb/C mice
Description: Anti-inflammatory activity was measured in the mouse ear oedema model using 12-O-tetradeconoylphorbol-13-acetate (TPA) (Sigma) or croton oil as the inducer of inflammation (Sanchez, T and Moreno, J 1999, Role of leukocyte influx in tissue prostaglandin H synthase-2 overexpression induced by phorbol ester and arachidonic acid in skin, Biochemical Pharmacology, 58, 877-879.). Male Balb/C mice 7-9 weeks old and weighing 20-25 g were used. Mice were housed in cages at constant room temperature (20±2° C.) with access to food (standard rat/mouse pellet) and water ad libitum. A 12 hr day/night cycle was maintained in the animal holding facility (Reid building animal house, University of South Australia) and all experiments were carried out during the day phase.
Baseline measurements of ear thickness were measured using a digital micrometer (±0.001 mm, Mitutoyo, Japan) prior to the experiment. TPA (2.5 μg/ear), which was dissolved in acetone, was then applied in a volume of 20 μL to the inner surface of the right ear and 20 μL of acetone to the left ear as control. After thirty minutes the test samples, which were dissolved in 80% ethanol, were applied to the inner surface of the right ear and 80% ethanol on the left ear to the respective treatment groups. Betamethasone 17,21-dipropionate (Sigma) (0.9 μmol/ear) was used as a positive control. Multi-dose experiments were conducted over the range 0.005-1.83 μmol/ear. At 2 h, 4 h, 6 h, 8 h, 24 h and 48 h after the application, the ear thicknesses were measured using a digital micrometer. A non-treated control group to which only croton oil or TPA were applied was used as a measure of maximum inflammation achieved with percent inhibition of inflammation of test sample being calculated relative to this group. Following completion of the experiment, mice were euthanized by inhalation of isoflurane followed by cervical dislocation.

In the case of “15,16-epoxy-8(α)-(benzoyloxy)methyl-cleroda-3,13(16), 14-trien-18-oic acid [Compound E]”, the anti-inflammatory activity (TPA-induced mouse ear oedema model) is reported as “significant anti-inflammatory activity”, the maximum inhibition (dose of 0.91 μmol) is reported as 76.4±7.3% and the “effect at lower concentrations” value (doses lower than 1.83 μmol/ear) is reported as “no observable effect”. For the same substance, the “activity when compared to TPA only control” value (highest dose tested 1.83 μmol/ear, p<0.05) was “some significant level of activity”.

— patent US9403786B2, “Anti-inflammatory compounds” (University of South Australia, priority 2009, dated 2016)
